Assay results taken from patent US7196110B2, “N-substituted tricyclic 3-aminopyrazoles as inhibitors for the treatment of cell proliferative disorders” (Janssen Phamaceutica N.V., priority 2002, dated 2007).
Where two headings read alike, the source gives them in different places.

Target: T1, PDGF-receptor beta enzyme comprising the tyrosine kinase domain (Homo sapiens, UniProt P09619)
T1 construct: from amino acid 545 to 1106 of GenBank Access NO: AAA36427
Assay: Inhibition of PDGF-receptor kinase activity (cell-free, PLC1 peptide, 33P Flashplate)
Format: biochemical
Details: for inhibition at 10 µM: compound at 10 uM, read-out: Percent Inhibition @ 10 uM
Summary of the method: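 The IC50 is the inhibitor level halving kinase activity relative to inhibitor-free wells, measured as 33P captured on a streptavidin-bound biotin-PLC1 peptide. The reaction ran 60 min at 30 °C in pH 8 Tris buffer with 1 mM DTT, 5 μM ATP and the 545–1106 kinase-domain enzyme.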

[1] = PDGF-R kinase activity, read-out: IC50

T1 sequence (P09619 545-1106): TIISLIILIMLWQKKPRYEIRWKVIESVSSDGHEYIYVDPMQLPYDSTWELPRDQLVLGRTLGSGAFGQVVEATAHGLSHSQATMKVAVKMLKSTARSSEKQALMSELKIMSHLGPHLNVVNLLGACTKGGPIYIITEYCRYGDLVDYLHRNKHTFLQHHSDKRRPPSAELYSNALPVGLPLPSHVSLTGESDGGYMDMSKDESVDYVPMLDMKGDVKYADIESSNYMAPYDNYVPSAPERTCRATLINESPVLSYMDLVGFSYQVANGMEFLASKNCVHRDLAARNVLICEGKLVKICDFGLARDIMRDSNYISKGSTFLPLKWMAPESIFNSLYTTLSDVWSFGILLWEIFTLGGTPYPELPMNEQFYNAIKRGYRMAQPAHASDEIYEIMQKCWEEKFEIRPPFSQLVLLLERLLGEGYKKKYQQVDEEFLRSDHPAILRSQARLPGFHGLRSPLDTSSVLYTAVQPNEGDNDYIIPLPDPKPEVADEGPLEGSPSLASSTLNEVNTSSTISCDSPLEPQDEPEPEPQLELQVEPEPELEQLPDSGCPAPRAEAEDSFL

| inhibition at 10 µM (PDGF-R kinase activity) [%] | IC50 [1] [µM] | IC50 (read-out: IC50 (μM) on PDGF-R kinase activity) [µM] | SMILES |
| --- | --- | --- | --- |
| 16 | > 50 |  | COc1cc2c(cc1OC)-c1n[nH]c(Nc3ccc(Br)cc3C(F)(F)F)c1C2 [Compound 76, (4-Bromo-2-trifluoromethyl-phenyl)-(6,7-dimethoxy-2,4-dihydro-indeno[1,2-c]pyrazol-3-yl)-amine] |
| 74.5 | 1.32 |  | COc1cccc([C@H](C)Nc2[nH]nc3c2Cc2cc(OC)c(OC)cc2-3)c1 (single isomer, unassigned) [Compound 324, (6,7-Dimethoxy-2,4-dihydro-indeno[1,2-c]pyrazol-3-yl)-[1-(3-methoxy-phenyl)-ethyl]-amine] |
| 88.5 | 0.25 |  | COc1cc2c(cc1OC)-c1n[nH]c(Nc3c(F)cccc3F)c1C2 [Compound 476, (2,6-Difluoro-phenyl)-(6,7-dimethoxy-2,4-dihydro-indeno[1,2-c]pyrazol-3-yl)-amine] |
| 99 | 0.00857 |  | COc1cc2c(cc1OC)-c1n[nH]c(Nc3cccnc3Cl)c1C2 [Compound 377, (2-Chloro-pyrid-3-yl)-(6,7-dimethoxy-2,4-dihydro-indeno[1,2-c]pyrazol-3-yl)-amine] |
| 88 | 0.085 |  | COCCCOc1cc2c(cc1OC)-c1n[nH]c(Nc3ccc(F)c(Cl)c3)c1C2 [Compound 166, (3-Chloro-4-fluoro-phenyl)-[7-methoxy-6-(3-methoxy-propoxy)-2,4-dihydro-indeno[1,2-c]pyrazol-3-yl]-amine] |
| 79 | 4 |  | COc1cc2c(cc1OC)-c1n[nH]c(Nc3ccc(OC(F)(F)F)cc3)c1C2 [Compound 16, (6,7-Dimethoxy-2,4-dihydro-indeno[1,2-c]pyrazol-3-yl)-(4-trifluoromethoxy-phenyl)-amine] |
| 83 | 0.346 |  | COc1ccc(OC)c(Nc2[nH]nc3c2Cc2ccc(OC)cc2-3)c1 [Compound 174, (2,5-Dimethoxy-phenyl)-(7-methoxy-2,4-dihydro-indeno[1,2-c]pyrazol-3-yl)-amine] |
| 62 | 4.77 |  | COc1cc2c(cc1OC)-c1n[nH]c(Nc3ccc(C(F)(F)F)cc3)c1C2 [Compound 25, (6,7-Dimethoxy-2,4-dihydro-indeno[1,2-c]pyrazol-3-yl)-(4-trifluoromethyl-phenyl)-amine] |

Continued, compound first:

| SMILES | inhibition at 10 µM (PDGF-R kinase activity) [%] | IC50 [1] [µM] | IC50 (read-out: IC50 (μM) on PDGF-R kinase activity) [µM] |
| --- | --- | --- | --- |
| Fc1ccc2c(c1)Cc1c-2n[nH]c1Nc1ccc(OC(F)(F)F)cc1 [Compound 238, (6-Fluoro-2,4-dihydro-indeno[1,2-c]pyrazol-3-yl)-(4-trifluoromethoxy-phenyl)-amine] | 87 | 0.419 |  |
| COc1ccc2c(c1)-c1n[nH]c(Nc3ccc(OC(F)(F)F)cc3)c1C2 [Compound 177, (7-Methoxy-2,4-dihydro-indeno[1,2-c]pyrazol-3-yl)-(4-trifluoromethoxy-phenyl)-amine] | 65.5 | 0.523 |  |
| CCOc1cc2c(cc1OCC)C(C)c1c-2n[nH]c1Nc1ccc(F)cc1 (stereo not drawn) [Compound 349, (6,7-Diethoxy-4-methyl-2,4-dihydro-indeno[1,2-c]pyrazol-3-yl)-(4-fluoro-phenyl)-amine] | 78 | 0.0809 |  |
| COc1cccc(Nc2[nH]nc3c2Cc2cc(F)ccc2-3)c1 [Compound 234, (6-Fluoro-2,4-dihydro-indeno[1,2-c]pyrazol-3-yl)-(3-methoxy-phenyl)-amine] | 101 | 0.358 |  |
| Nc1ccc2c(c1)Cc1c-2n[nH]c1Nc1cccc(Br)c1 [Compound 117, N3-(3-Bromo-phenyl)-2,4-dihydro-indeno[1,2-c]pyrazole-3,6-diamine] | 98 | 0.13 |  |
| CCOc1cc2c(cc1OCC)-c1n[nH]c(NCc3c(Cl)cccc3Cl)c1C2 [Compound 295, (2,6-Dichloro-benzyl)-(6,7-diethoxy-2,4-dihydro-indeno[1,2-c]pyrazol-3-yl)-amine] | 81.5 | 0.00164 |  |
| CCOC(=O)n1nc2c(c1Nc1cccc(F)c1)Cc1cc(OC)c(OC)cc1-2 [Compound 435, 3-(3-Fluoro-phenylamino)-6,7-dimethoxy-4H-indeno[1,2-c]pyrazole-2-carboxylic acid ethyl ester] | 67 | 1.59 |  |
| COc1ccc(Nc2[nH]nc3c2Cc2cc(Cl)ccc2-3)cc1 [Compound 189, (6-Chloro-2,4-dihydro-indeno[1,2-c]pyrazol-3-yl)-(4-methoxy-phenyl)-amine] | 92 | 0.199 |  |
| COc1cc2c(cc1OC)C(C)c1c-2n[nH]c1NCc1cccc(Cl)c1 (stereo not drawn) [Compound 333, (3-Chloro-benzyl)-(6,7-dimethoxy-4-methyl-2,4-dihydro-indeno[1,2-c]pyrazol-3-yl)-amine] | 73.5 | 2.55 |  |
| COc1cc2c(cc1OC)-c1n[nH]c(N(c3cccc(F)c3)[C@@H]3O[C@H](C(=O)O)[C@@H](O)[C@H](O)[C@H]3O)c1C2 [Compound 591, 6-[(6,7-Dimethoxy-2,4-dihydro-indeno[1,2-c]pyrazol-3-yl)-(3-fluoro-phenyl)-amino]-3,4,5-trihydroxy-tetrahydro-pyran-2-carboxylic acid] | 96 |  | 0.662 |
| COCCCOc1ccc2c(c1)Cc1c-2n[nH]c1Nc1cccc(F)c1 [Compound 138, (3-Fluoro-phenyl)-[6-(3-methoxy-propoxy)-2,4-dihydro-indeno[1,2-c]pyrazol-3-yl]-amine] | 79.5 | 0.301 |  |
| Cc1ccc2c(c1)-c1n[nH]c(Nc3ccc(OC(F)(F)F)cc3)c1C2 [Compound 186, (7-Methyl-2,4-dihydro-indeno[1,2-c]pyrazol-3-yl)-(4-trifluoromethoxy-phenyl)-amine] | 78 | 0.414 |  |
| COc1cc2c(cc1OC)C(C)c1c-2n[nH]c1Nc1cccc(SC)c1 (stereo not drawn) [Compound 255, (6,7-Dimethoxy-4-methyl-2,4-dihydro-indeno[1,2-c]pyrazol-3-yl)-(3-methylsulfanyl-phenyl)-amine] | 90 | 0.162 |  |
| COC(=O)n1nc(Nc2cccc(F)c2)c2c1-c1cc(OC)c(OC)cc1C2 [Compound 439, 3-(3-Fluoro-phenylamino)-6,7-dimethoxy-4H-indeno[1,2-c]pyrazole-1-carboxylic acid methyl ester] | 69.5 | 0.62 |  |
| COc1cc2c(cc1OC)C(C(C)C)c1c-2n[nH]c1Nc1cccc(Cl)c1 (stereo not drawn) [Compound 540, (3-Chloro-phenyl)-(4-isopropyl-6,7-dimethoxy-2,4-dihydro-indeno[1,2-c]pyrazol-3-yl)-amine] | 47 | 14.7 |  |
| COc1cc2c(cc1OC)-c1c(c(Nc3cccc(F)c3)nn1C(=O)c1c(F)cccc1F)C2 [Compound 480, (2,6-Difluoro-phenyl)-[3-(3-fluoro-Phenylamino)-6,7-dimethoxy-4H-indeno[1,2-c]pyrazol-1-yl]-methanone] | 8 |  |  |
| CN(C)c1ccc(Nc2[nH]nc3c2Cc2cc(Cl)ccc2-3)cc1 [Compound 196, N-(6-Chloro-2,4-dihydro-indeno[1,2-c]pyrazol-3-yl)-N′,N′-dimethyl-benzene-1,4-diamine] | 70 | 1.29 |  |
| CCOc1cc2c(cc1OCC)C(C)c1c-2n[nH]c1Nc1cccnc1 (stereo not drawn) [Compound 345, (6,7-Diethoxy-4-methyl-2,4-dihydro-indeno[1,2-c]pyrazol-3-yl)-pyridin-3-yl-amine] | 88 | 0.0893 |  |
